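Tested at 5 concentrations; 48 h exposure; 96-well plates; endpoints linearly interpolated, else capped at highest concentration. TGI denotes the concentration required for complete inhibition of growth.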
Experiments:
Assay in all cases: growth of human tumour cells (NCI), 48 h
[1] = tested on: CCRF-CEM leukemia
[2] = tested on: PC-3 prostate
[3] = tested on: TK-10 renal
[4] = tested on: SK-MEL-2 melanoma
[5] = tested on: EKVX NSCLC
[6] = tested on: RXF 393 renal
[7] = tested on: HL-60(TB) leukemia
[8] = tested on: NCI-H522 lung
[9] = tested on: SK-OV-3 ovarian
[10] = tested on: HOP-62 NSCLC
[11] = tested on: NCI-H23 lung
[12] = tested on: NCI/ADR-RES ovarian
[13] = tested on: HT29 colon
[14] = tested on: RPMI-8226 leukemia
[15] = tested on: SF-539 CNS
[16] = tested on: HCT-116 colon
[17] = tested on: MDA-N
[18] = tested on: BT-549 breast
[19] = tested on: MDA-MB-231 breast
[20] = tested on: ACHN renal
[21] = tested on: SK-MEL-28 melanoma
[22] = tested on: A549 NSCLC
[23] = tested on: UACC-257 melanoma
[24] = tested on: MDA-MB-435
[25] = tested on: SW-620 colon
[26] = tested on: UO-31 renal
[27] = tested on: K-562 leukemia
[28] = tested on: HCT-15 colon
[29] = tested on: SNB-19 CNS
[30] = tested on: SNB-75 CNS
[31] = tested on: SR leukemia
[32] = tested on: 786-0 renal
[33] = tested on: OVCAR-8 ovarian
[34] = tested on: CAKI-1 renal
[35] = tested on: SF-268 CNS
[36] = tested on: SF-295 CNS
[37] = tested on: IGROV1 ovarian
[38] = tested on: DU-145 prostate
[39] = tested on: UACC-62 melanoma
[40] = tested on: KM12 colon
[41] = tested on: SK-MEL-5 melanoma
[42] = tested on: HOP-92 NSCLC
[43] = tested on: MALME-3M melanoma
[44] = tested on: A498 renal
[45] = tested on: OVCAR-5 ovarian
[46] = tested on: HCC-2998 colon
[47] = tested on: HS 578T breast
[48] = tested on: SN12C renal
[49] = tested on: U251 CNS
[50] = tested on: COLO 205 colon
[51] = tested on: NCI-H460 lung
[52] = tested on: M14 melanoma
[53] = tested on: LOX IMVI melanoma
[54] = tested on: MCF7 breast
[55] = tested on: MOLT-4 leukemia
[56] = tested on: T-47D breast

Cc1cn2c(/C=C3/C(=O)Nc4ccccc43)c(C)nc2s1
TGI [1]: 8.91 µM | TGI [2]: 6.99 µM | TGI [3]: > 100 µM | TGI [4]: 5.57 µM | TGI [5]: > 100 µM | TGI [6]: > 100 µM | TGI [7]: 2.53 µM | TGI [8]: 21.5 µM | TGI [9]: 25.7 µM | TGI [10]: > 100 µM | TGI [11]: > 100 µM | TGI [12]: > 100 µM | TGI [13]: 15.5 µM | TGI [14]: 21 µM | TGI [15]: 7.83 µM | TGI [16]: 15.5 µM | TGI [17]: 0.492 µM | TGI [18]: > 100 µM | TGI [19]: 43.4 µM | TGI [20]: > 100 µM | TGI [21]: > 100 µM | TGI [22]: 50.7 µM | TGI [23]: > 100 µM | TGI [24]: 0.619 µM | TGI [25]: 77.3 µM | TGI [26]: 61.4 µM | TGI [27]: 17.2 µM | TGI [28]: > 100 µM | TGI [29]: > 100 µM | TGI [30]: > 100 µM | TGI [31]: 47 µM | TGI [32]: > 100 µM | TGI [33]: > 100 µM | TGI [34]: > 100 µM | TGI [35]: 78.1 µM | TGI [36]: > 100 µM | TGI [37]: > 100 µM | TGI [38]: > 100 µM | TGI [39]: > 100 µM | TGI [40]: 29.7 µM | TGI [41]: 14.6 µM | TGI [42]: > 100 µM | TGI [43]: > 100 µM | TGI [44]: > 100 µM | TGI [45]: > 100 µM | TGI [46]: 19.5 µM | TGI [47]: 7 µM | TGI [48]: 42.2 µM | TGI [49]: 10.9 µM | TGI [50]: 15.6 µM | TGI [51]: 16.1 µM | TGI [52]: > 100 µM | TGI [53]: 70.4 µM | TGI [54]: > 100 µM | TGI [55]: 15.2 µM | TGI [56]: 38.5 µM

Reference: PubChem BioAssay (NCI)
